The source of these data is patent US10670605B2, “Cysteine reactive probes and uses thereof” (The Scripps Research Institute, priority 2015, dated 2020).

Holding throughout (test): Competitive isoTOP-ABPP in situ (fragment-treated cells)
What all share (format): cell-based

Assay [1] concerns the target T1, cysteines in MDA-MB-231 and Ramos cells (Homo sapiens, UniProt Q01433).
T1 sequence (Q01433 1-825): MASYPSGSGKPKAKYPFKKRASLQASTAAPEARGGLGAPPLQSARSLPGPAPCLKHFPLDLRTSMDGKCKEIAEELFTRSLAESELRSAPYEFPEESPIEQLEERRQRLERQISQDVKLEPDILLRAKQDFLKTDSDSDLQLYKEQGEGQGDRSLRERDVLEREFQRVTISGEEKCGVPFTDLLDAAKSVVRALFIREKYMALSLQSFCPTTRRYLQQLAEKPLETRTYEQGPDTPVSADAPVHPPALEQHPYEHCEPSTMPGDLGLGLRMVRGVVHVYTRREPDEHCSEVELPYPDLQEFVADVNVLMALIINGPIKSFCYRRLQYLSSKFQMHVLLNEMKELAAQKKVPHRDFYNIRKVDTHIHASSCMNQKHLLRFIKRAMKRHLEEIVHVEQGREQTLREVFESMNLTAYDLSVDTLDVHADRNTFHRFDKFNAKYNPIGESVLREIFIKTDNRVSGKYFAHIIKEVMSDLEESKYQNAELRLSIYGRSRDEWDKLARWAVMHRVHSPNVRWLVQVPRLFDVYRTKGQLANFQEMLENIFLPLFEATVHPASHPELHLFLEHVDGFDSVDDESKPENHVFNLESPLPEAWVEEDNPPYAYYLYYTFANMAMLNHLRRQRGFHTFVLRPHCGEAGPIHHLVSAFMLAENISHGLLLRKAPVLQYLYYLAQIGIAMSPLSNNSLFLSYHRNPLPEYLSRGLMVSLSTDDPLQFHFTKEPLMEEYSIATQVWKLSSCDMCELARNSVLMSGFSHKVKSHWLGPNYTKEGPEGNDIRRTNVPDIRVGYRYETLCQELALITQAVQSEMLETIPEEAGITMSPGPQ

Assay [2] deals with T2, cysteines in MDA-MB-231 and Ramos cells (Homo sapiens, UniProt Q9NP73).
T2 sequence (Q9NP73 1-1137): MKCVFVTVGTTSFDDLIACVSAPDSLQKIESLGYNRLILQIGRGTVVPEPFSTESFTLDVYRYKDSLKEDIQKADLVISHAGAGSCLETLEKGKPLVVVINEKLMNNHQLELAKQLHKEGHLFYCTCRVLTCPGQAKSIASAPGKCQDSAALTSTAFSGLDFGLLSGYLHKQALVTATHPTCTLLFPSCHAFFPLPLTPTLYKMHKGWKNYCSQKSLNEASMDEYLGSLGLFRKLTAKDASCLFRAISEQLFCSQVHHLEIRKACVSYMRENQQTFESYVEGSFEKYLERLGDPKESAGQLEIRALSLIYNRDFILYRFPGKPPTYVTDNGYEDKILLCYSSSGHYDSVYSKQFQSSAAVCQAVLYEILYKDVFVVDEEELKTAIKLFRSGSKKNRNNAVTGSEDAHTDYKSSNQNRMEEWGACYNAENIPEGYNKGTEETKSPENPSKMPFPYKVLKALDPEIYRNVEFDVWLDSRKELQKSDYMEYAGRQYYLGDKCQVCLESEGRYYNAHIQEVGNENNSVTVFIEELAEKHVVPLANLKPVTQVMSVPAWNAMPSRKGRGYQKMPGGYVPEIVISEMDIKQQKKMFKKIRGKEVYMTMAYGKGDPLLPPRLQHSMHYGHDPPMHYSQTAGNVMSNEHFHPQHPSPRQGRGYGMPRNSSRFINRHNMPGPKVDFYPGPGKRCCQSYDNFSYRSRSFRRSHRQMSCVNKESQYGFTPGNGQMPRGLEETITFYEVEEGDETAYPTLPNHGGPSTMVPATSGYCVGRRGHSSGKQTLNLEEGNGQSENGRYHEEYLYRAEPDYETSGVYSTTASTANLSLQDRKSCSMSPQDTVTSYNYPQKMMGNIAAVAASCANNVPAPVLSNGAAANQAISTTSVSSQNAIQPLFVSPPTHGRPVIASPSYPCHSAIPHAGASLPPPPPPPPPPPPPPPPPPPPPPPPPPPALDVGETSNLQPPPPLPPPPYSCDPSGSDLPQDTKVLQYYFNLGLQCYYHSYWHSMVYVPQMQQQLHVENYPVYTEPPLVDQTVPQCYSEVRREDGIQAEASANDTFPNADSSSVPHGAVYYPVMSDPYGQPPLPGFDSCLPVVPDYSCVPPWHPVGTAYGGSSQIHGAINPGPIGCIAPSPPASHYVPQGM

For assay [3], the target named is T3, cysteines in MDA-MB-231 and Ramos cells (Homo sapiens, UniProt Q9Y570).
T3 sequence (Q9Y570 1-386): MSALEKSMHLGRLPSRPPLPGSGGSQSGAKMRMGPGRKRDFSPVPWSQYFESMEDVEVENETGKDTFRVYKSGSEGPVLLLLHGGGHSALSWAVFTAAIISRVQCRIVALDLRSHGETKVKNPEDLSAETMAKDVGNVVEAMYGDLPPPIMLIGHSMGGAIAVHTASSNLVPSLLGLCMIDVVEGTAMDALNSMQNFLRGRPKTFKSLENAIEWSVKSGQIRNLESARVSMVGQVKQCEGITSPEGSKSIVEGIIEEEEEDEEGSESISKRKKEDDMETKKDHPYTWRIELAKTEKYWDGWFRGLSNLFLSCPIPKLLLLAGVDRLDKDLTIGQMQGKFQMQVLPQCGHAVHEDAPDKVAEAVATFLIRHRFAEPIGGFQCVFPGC

Assay [4] deals with T4, cysteines in MDA-MB-231 and Ramos cells (Homo sapiens, UniProt Q9P0J1).
T4 sequence (Q9P0J1 72-537): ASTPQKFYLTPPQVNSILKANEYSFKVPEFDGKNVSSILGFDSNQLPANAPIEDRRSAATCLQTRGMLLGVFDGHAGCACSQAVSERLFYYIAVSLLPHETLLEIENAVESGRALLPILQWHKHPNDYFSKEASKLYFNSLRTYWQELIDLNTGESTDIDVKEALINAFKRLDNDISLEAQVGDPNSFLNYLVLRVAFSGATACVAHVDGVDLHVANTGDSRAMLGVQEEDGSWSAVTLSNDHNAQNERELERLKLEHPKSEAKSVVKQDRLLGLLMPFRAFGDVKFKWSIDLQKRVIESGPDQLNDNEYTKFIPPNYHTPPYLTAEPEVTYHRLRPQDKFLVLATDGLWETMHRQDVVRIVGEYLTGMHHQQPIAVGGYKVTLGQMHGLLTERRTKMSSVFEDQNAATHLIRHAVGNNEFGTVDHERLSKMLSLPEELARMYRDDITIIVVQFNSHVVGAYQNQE

For `COc1ccc(C2CC(c3cccs3)=NN2C(=O)CCl)cc1` (stereo not shown) [compound 4], the “isoTOP-ABPP reactivity Q01433_C107 AMPD2” value in assay [1] (100 μM in situ 231) is listed as 2.3. The “isoTOP-ABPP reactivity Q9NP73_C86 ALG13” value in assay [2] (100 μM in situ 231) worked out at 20.0. For the same compound, in assay [3] (100 μM in situ 231), the “isoTOP-ABPP reactivity Q9Y570_C381 PPME1” value is 1.1.

Consider `O=C(CCl)Nc1cccc2ncccc12` [compound 51], for which the “isoTOP-ABPP ratio Q9NP73_C86” value in assay [2] (200 μM, insitu, 231) amounted to 1.3. Besides, the “isoTOP-ABPP ratio Q9P0J1_C149” value in assay [4] (200 μM, insitu, 231) was 0.8.

With `CC1CCc2ccccc2N1C(=O)CCl` (stereo not shown) [compound 45], in assay [2] (200 μM, insitu, 231), the “isoTOP-ABPP ratio Q9NP73_C86” value is reported as 20.0.

For `O=C(CCl)NC(=O)NC12CC3CC(CC(C3)C1)C2` [compound 12], the “isoTOP-ABPP ratio, cysteine Q9P0J1_C149” value in assay [4] (200 μM, insitu, 231) was determined as 18.5.

As to `O=C(CCl)N1CCN(S(=O)(=O)c2ccccc2F)CC1` [compound 10], in assay [4] (200 μM, insitu, 231), the “isoTOP-ABPP ratio, cysteine Q9P0J1_C149” value is given as 18.0. Besides, the “isoTOP-ABPP ratio, cysteine Q9Y570_C381” value in assay [3] (200 μM, insitu, 231) was determined as 4.7.

For `O=C(CCl)N1CCN(CC(=O)N2CCOCC2)CC1` [compound 29], the “isoTOP-ABPP ratio Q9NP73_C86” value in assay [2] (200 μM, insitu, ramos) amounted to 2.0. Further, the “isoTOP-ABPP ratio Q9P0J1_C149” value in assay [4] (200 μM, insitu, ramos) is reported as 1.0. Moreover, in assay [3] (200 μM, insitu, ramos), the “isoTOP-ABPP ratio Q9Y570_C381” value is given as 1.2.

Consider `CC(C)CCOCCNC(=O)CCl` [compound 27], for which the “isoTOP-ABPP ratio Q01433_C107” value in assay [1] (200 μM, insitu, 231) is 0.4. The “isoTOP-ABPP ratio Q9NP73_C86” value in assay [2] (200 μM, insitu, 231) was 0.4.

On to `O=C(CCl)N1CCC(Cc2ccccc2)CC1` [compound 9], for which, in assay [1] (200 μM, insitu, 231), the “isoTOP-ABPP reactivity Q01433_C107 AMPD2” value is 3.1. Besides, the “isoTOP-ABPP reactivity Q9Y570_C381 PPME1” value in assay [3] (200 μM, insitu, 231) is reported as 20.0.

Regarding `COc1ccc2c(c1)CCCN2C(=O)CCl` [compound 2], the “isoTOP-ABPP reactivity Q01433_C107 AMPD2” value in assay [1] (200 μM, insitu, 231) stood at 4.4. Also, the “isoTOP-ABPP reactivity Q9NP73_C86 ALG13” value in assay [2] (200 μM, insitu, 231) came out at 20.0. For the same compound, the “isoTOP-ABPP reactivity Q9P0J1_C149 PDP1” value in assay [4] (200 μM, insitu, 231) is given as 20.0. The “isoTOP-ABPP reactivity Q9Y570_C381 PPME1” value in assay [3] (200 μM, insitu, 231) was found to be 12.6.

In the case of `Cn1cc(S(=O)(=O)N2CCOCC2)cc1C(=O)NC(=O)CCl` [compound 11], in assay [1] (100 μM in situ 231), the “isoTOP-ABPP ratio, cysteine Q01433_C107” value was found to be 0.6. Besides, the “isoTOP-ABPP ratio Q9NP73_C86” value in assay [2] (100 μM in situ 231) is on record as 0.7. Besides, the “isoTOP-ABPP ratio, cysteine Q9P0J1_C149” value in assay [4] (100 μM in situ 231) turned out to be 1.4.

Consider `O=C(CCl)NCCc1c[nH]c2ccccc12` [compound 13], for which the “isoTOP-ABPP ratio Q9NP73_C86” value came to 0.9 in assay [2] (200 μM, insitu, 231) and 1.4 in assay [2] (200 μM, insitu, ramos). For the same compound, the “isoTOP-ABPP ratio, cysteine Q9Y570_C381” value in assay [3] (200 μM, insitu, 231) is listed as 0.9.

As to `Cc1ccc(C=C(C#N)C(=O)NCCN2CCOCC2)cc1` [compound 41], in assay [1] (200 μM, insitu, 231), the “isoTOP-ABPP ratio Q01433_C107” value is recorded as 0.5. The “isoTOP-ABPP ratio Q9NP73_C86” value in assay [2] (200 μM, insitu, 231) came to 0.5. For the same compound, the “isoTOP-ABPP ratio Q9P0J1_C149” value in assay [4] (200 μM, insitu, 231) was 20.0. Also, the “isoTOP-ABPP ratio Q9Y570_C381” value in assay [3] (200 μM, insitu, 231) worked out at 0.2.

With `C=CC(=O)Nc1cc(F)c(N2CCN(C(=O)OC(C)(C)C)CC2)c(F)c1` [compound 38], in assay [2] (200 μM, insitu, 231), the “isoTOP-ABPP ratio Q9NP73_C86” value came to 1.3. In assay [4] (200 μM, insitu, 231), the “isoTOP-ABPP ratio Q9P0J1_C149” value was found to be 0.9.

Consider `C=CC(=O)N(Cc1cccnc1)c1cc(C(F)(F)F)cc(C(F)(F)F)c1` [compound 31], for which, in assay [1] (200 μM, insitu, 231), the “isoTOP-ABPP ratio Q01433_C107” value is 0.7.

`COc1cc2c(cc1OC)CN(C(=O)CCl)CC2` [compound 8]: the “isoTOP-ABPP reactivity Q01433_C107 AMPD2” value in assay [1] (200 μM, insitu, 231) was 6.2.
